The source of these data is article PMC3411462, “Long-acting κ opioid antagonists nor-BNI, GNTI and JDTic: pharmacokinetics in mice and lipophilicity” (BMC Pharmacology, 2012).

One data set is described as follows: Water solubility. The conditions noted are these: distilled water, thermodynamic from solid, 25 °C, salt tested. The class given is physicochemical. The method, then:
Distilled water was added slowly by microsyringe to 10–15 mg of drug in a glass vial, swirling until no solid was visible.

Data set [1] can be described thus: Octanol-buffer distribution (log D7.4). It counts as physicochemical. The settings on record: for logD / logD at 1 min / logD at 10 min / logD at 30 min: 1-octanol/PBS; for logD: pH 7.4, pooled mixing times 1, 10, 30 min; for logD at 1 min: mixing time 1 min; for logD at 1 min / logD at 10 min / logD at 30 min: octanol/PBS pH 7.4; for logD at 10 min: mixing time 10 min; for logD at 30 min: mixing time 30 min. As to the method: Phosphate-buffered saline (PBS, pH 7.4) and 1-octanol were mutually saturated by vigorous stirring at room temperature for 18 h, and then separated. Drug solutions of 0.1 mg mL^-1 in PBS were prepared, and 500 μL aliquots were added to 1.5 mL micro-centrifuge tubes with an equal volume of 1-octanol. Three samples were vortex-mixed for 1, 10 and 30 minutes respectively, then centrifuged at room temperature (12,000 rpm for 15 minutes). Aliquots of the upper octanol layer were removed by pipette. A disposable syringe was inserted while bubbling air through the upper layer, an aliquot of the lower PBS layer withdrawn, and the needle removed before transferring. Samples were stored in glass sample vials at −20 °C until analysis by LC-MS-MS.
Drug concentrations (ng mL^-1) refer to the free base, and were measured by liquid chromatography-tandem mass spectrometry (LC-MS-MS) as described previously. Briefly, samples were shaken with 3 volumes of methanol and centrifuged at 3000 g. Aliquots of the supernatants were diluted with 5 volumes of water containing an appropriate internal standard. Extracts from in vitro and in vivo experiments were analyzed by multiple reaction monitoring on an API3000 or API4000 LC-MS-MS system with electrospray ion source, controlled and analyzed using the Analyst software package (Applied Biosystems, Foster City, CA). Chromatography was conducted on a Sprite Armor C18 analytical column (20 × 2.1 mm, 10 μm particle size, Analytical Sales and Products, Pompton Plains, NJ) with a 0.5 μm PEEK guard filter. Compounds were eluted with a gradient from 2% to 95% acetonitrile in water, both containing 0.1% formic acid. Compounds were detected in positive ion mode, tuned to the mass transition with the largest intensity. Analyte concentrations were determined by comparison of analyte:internal standard peak area ratios to those of standards prepared in the appropriate matrices.

A short description of data set [2]: Brain homogenate binding (unbound fraction by ultracentrifugation). The class given is in vitro ADME. As to the method: Unbound fractions in brain homogenate and plasma were determined by ultracentrifugation as described previously. Briefly, drug-spiked matrices (5 μM drug in plasma or brain homogenate) were centrifuged at 600,000 g for 5 h at 37 °C (plasma) or 5 °C (brain). Aliquots of the middle (water) layer were added to an equal volume of blank matrix and extracted with 5 volumes of acetonitrile containing internal standard. Aliquots of the original spiked matrix were mixed with an equal volume of blank matrix and 2 volumes of plasma ultrafiltrate (plasma) or phosphate-buffered saline (tissue) and extracted with 10 volumes of acetonitrile. Extracts were centrifuged and analyzed by LC-MS-MS. Fraction unbound was calculated from the ratio of concentration in the water layer to that in the original spiked matrix, corrected for dilution as described previously. Based on previous results for basic drugs, in vivo free fraction in brain was assumed to be at least 3-fold lower than the in vitro free fraction in brain homogenate.

The subject of another data set is μ opioid receptor. Details: method as in PMID 1326932. The conditions noted are these: after subcutaneous administration; cited from earlier work.
On the set-up of data set [3]: method as in earlier work. The conditions noted are these: preliminary reports; cited from earlier work.
On the set-up of data set [4]: method as in PMID 17049114. The conditions noted are these: mice, i.p.; cited from earlier work.
The conditions of data set [5]: cited from earlier work.
The test system of a further data set is κ opioid receptor. Details: method as in PMID 15464069. The settings on record: intragastric administration; cited from earlier work.
Setting [6] is: 5 μM drug, mean, n = 3, corrected for dilution, read-out: Fraction unbound, Brain homogenate.
Setting [7] is: Brain homogenate, read-out: % free (uncorrected).

Each structure is given as a SMILES string. Read-outs that look alike come from different tables or passages of the source. Marks after values point to notes of the source that are not given here. Bounds are passed on as bounds.

The term solubility denotes the dissolved amount per volume that the medium holds. By logD is commonly meant lipophilicity at a set pH, counting ionised and neutral species. A low value points to a more hydrophilic compound. In the case of `Oc1ccc2c3c1O[C@H]1c4[nH]c5c(c4C[C@@]4(O)[C@@H](C2)N(CC2CC2)CC[C@]314)C[C@@]1(O)[C@H]2Cc3ccc(O)c4c3[C@@]1(CCN2CC1CC1)[C@H]5O4` [nor-BNI, norbinaltorphimine], in “Water solubility”, the solubility is > 45 mM. In data set [1], the logD is 1.53, the logD at 1 min is 1.43, the pH-dependent lipophilicity (logD) at 10 min worked out at 1.59 and the logD at 30 min is 1.57. In addition, in data set [2] (setting [6]), the fraction unbound at 5 h, 5 μM stood at 0.12. For the same molecule, the fraction unbound at 5 h, 5 μM in data set [2] (setting [7]) came out at 0.28. Besides, the fraction unbound at 5 h, 5 μM in data set [2] (mouse, assumed at least 3-fold lower than in homogenate, read-out: Fu,brain (in vivo est.)) was < 0.04. Further, in the data set with μ opioid receptor, the “μ antagonism, duration” value is “approximately 4 hours” and the “μ antagonism, time of peak” value is “approximately 30 minutes”. Besides, in data set [3], the “Detection in mouse brain after administration” value is listed as “up to 21 days”.
For `N=C(N)Nc1ccc2[nH]c3c(c2c1)C[C@@]1(O)[C@H]2Cc4ccc(O)c5c4[C@@]1(CCN2CC1CC1)[C@H]3O5` [GNTI, 5’-guanidinonaltrindole], in data set [1], the logD was -0.08, the pH-dependent lipophilicity (logD) at 1 min is -0.07, the pH-dependent lipophilicity (logD) at 10 min was -0.11 and the pH-dependent lipophilicity (logD) at 30 min was -0.0527. Also, the “Log10D7.4 octanol:buffer (pH 7.4)” value in data set [1] (mean, n = 3) was -0.1. Also, in data set [2] (setting [6]), the fraction unbound at 5 h, 5 μM was found to be 0.07. In addition, the fraction unbound at 5 h, 5 μM in data set [2] (setting [7]) was found to be 0.19. Besides, in data set [4], the “Sedation, duration” value was “less than 3 hours” and the “Sedation, time to maximum” value was ≤ 20 min. Also, the Water solubility in data set [5] (25 °C, ref Tocris product information sheet) was >100^a mmol L^-1. The Water solubility entry in data set [5] (ref Tocris product information sheet (Table 1)) is recorded as “at least 100 mM”.
As to `CC(C)[C@@H](CN1CC[C@@](C)(c2cccc(O)c2)[C@@H](C)C1)NC(=O)[C@H]1Cc2ccc(O)cc2CN1` [JDTic, (3R)-7-Hydroxy-N-((1S)-1-{[(3R,4R)-4-(3-hydroxyphenyl)-3,4-dimethyl-1-piperidinyl]methyl}-2-methylpropyl)-1,2,3,4-tetrahydro-3-isoquinolinecarboxamide], the solubility in “Water solubility” is > 45 mM. In data set [1], the logD was 1.84, the pH-dependent lipophilicity (logD) at 1 min was 1.84, the logD at 10 min turned out to be 1.9 and the log distribution coefficient (logD) at 30 min was found to be 1.77. For the same molecule, the fraction unbound at 5 h, 5 μM in data set [2] (setting [6]) came to 0.07. Further, the fraction unbound at 5 h, 5 μM in data set [2] (setting [7]) was 0.18. In data set [2] (assumed at least 3-fold lower than in homogenate, read-out: Fu,brain (in vivo est.)), the fraction unbound at 5 h, 5 μM is < 0.0233. Further, the “Delay in onset of κ antagonism” value with κ opioid receptor is “greater than 6 hours”.
